{"source": "patent US20070066608A1", "about": "“Novel indole derivatives with an improved antipsychotic activity” (priority 2003, published 2007)", "data": [{"molecular_target": "T1, Human 5HT1A receptor (Homo sapiens, UniProt P08908)", "T1 construct": "expressed in transfected cells; host or cells: L929 cells (stably transfected)", "T1 sequence (P08908 1-422)": "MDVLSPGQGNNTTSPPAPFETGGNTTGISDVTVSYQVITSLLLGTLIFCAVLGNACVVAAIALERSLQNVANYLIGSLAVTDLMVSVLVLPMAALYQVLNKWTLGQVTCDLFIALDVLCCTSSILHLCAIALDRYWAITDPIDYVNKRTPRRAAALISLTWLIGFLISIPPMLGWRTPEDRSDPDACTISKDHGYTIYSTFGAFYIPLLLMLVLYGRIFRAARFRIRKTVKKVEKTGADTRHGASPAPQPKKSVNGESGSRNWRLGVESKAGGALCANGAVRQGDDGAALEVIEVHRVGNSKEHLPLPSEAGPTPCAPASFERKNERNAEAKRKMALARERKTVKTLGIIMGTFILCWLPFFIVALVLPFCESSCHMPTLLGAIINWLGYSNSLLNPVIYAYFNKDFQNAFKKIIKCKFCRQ", "experiment": "Binding experiment for 5-HT1A receptor, [3H]8OHDPAT", "settings": "membranes of 5HT1A receptor-transfected L929 cells, read-out: pIC50 5HT1A (converted)", "experimental": "(§1) The interaction of the compounds of Formula (I) with dopamine-receptors, h5HT-transporter and h5HT1A receptor was assessed in in vitro radioligand binding experiments. In general, a low concentration of a radioligand with a high binding affinity for a particular receptor or transporter is incubated with a sample of a tissue preparation enriched in a particular receptor or transporter or with a preparation of cells expressing cloned human receptors in a buffered medium. During the incubation, the radioligand binds to the receptor or transporter. When equilibrium of binding is reached, the receptor bound radioactivity is separated from the non-bound radioactivity, and the receptor- or transporter-bound activity is counted The interaction of the test compounds with the receptor is assessed in competition binding experiments. Various concentrations of the test compound are added to the incubation mixture containing the receptor- or transporter preparation and the radioligand. The test compound in proportion to its binding affinity and its concentration inhibits binding of the radioligand.\nHuman 5HT1A receptor-transfected L929 cells were collected by scraping into ice-cold Tris-HCl buffer (50 mM, pH 7.4). The suspension was centrifuged (23 500×g, 10 min, 4° C.) and pellets stored at −70° C. until required. They were then thawed and briefly homogenised using an Ultra-Turrax T25 homogeniser prior to dilution to an appropriate protein concentration optimised for specific and non-specific binding. [^3H]8OHDPAT (NEN, specific activity 127 Ci/mmol) was diluted in Tris-HCl assay buffer containing CaCl2 (50 mM and 4 mM, respectively; pH 7.7) at a concentration of 5 nmol/L. Prepared radioligand (50 μl) was then incubated (30 min, 37° C.) with membrane preparations from L929 cells stably-transfected with the h5HT1A gene construct (400 μl) and with 50 μl of either the 10% DMSO control, spiroxatrine (10^−6 mol/L final concentration), or compound of interest. Membrane-bound activity was detected by filtration through a Packard Filtermate harvester onto Unifaltemplates, washing with ice-cold Tris-HCI buffer (3×4 ml), followed by drying. Scintillation fluid was added and membranes were counted in a Topcount scintillation counter. % Specific bound and competition binding curves were calculated using S-Plus software (Insightful).", "units": {"IC50": "nM"}, "values": [{"smiles": "O=[N+]([O-])c1ccc2[nH]cc(C3=CCN(CC4COc5ccncc5O4)CC3)c2c1", "note": "(racemic) [Compound 14]", "IC50": 200}, {"smiles": "Fc1ccc2[nH]cc(CCCNCC3Oc4cccnc4O3)c2c1", "note": "(centres unmarked) [Compound 9]", "IC50": 31.6}, {"smiles": "Fc1ccc2[nH]cc(C3=CCN(CC4COc5cccnc5O4)CC3)c2c1", "note": "(centres unmarked) [I, reference compound]", "IC50": 126}, {"smiles": "N#Cc1ccc2[nH]cc(C3CCN(CC4COc5ccncc5O4)CC3)c2c1", "note": "(single isomer, unassigned) [Compound 22]", "IC50": 10}, {"smiles": "CN1CC(CN2CC=C(c3c[nH]c4ccc(F)cc34)CC2)Oc2ncccc21", "note": "(centres unmarked) [Compound 1]", "IC50": 12.6}, {"smiles": "Fc1ccc2[nH]cc(CCCNCC3COc4ccncc4O3)c2c1", "note": "(centres unmarked) [Compound 6]", "IC50": 6.31}, {"smiles": "CN1CC(CN2CCC(c3c[nH]c4ccc(F)cc34)CC2)Oc2ncccc21", "note": "(centres unmarked) [Compound 2]", "IC50": 15.8}, {"smiles": "Fc1ccc2[nH]cc(C3CCN(CC4COc5ccncc5O4)CC3)c2c1", "note": "(centres unmarked) [Compound 5]", "IC50": 39.8}, {"smiles": "CN1CC(CNCCCc2c[nH]c3ccc(F)cc23)Oc2ncccc21", "note": "(centres unmarked) [Compound 3]", "IC50": 3.16}, {"smiles": "N#Cc1ccc2[nH]cc(C3CCN(CC4COc5ccncc5O4)CC3)c2c1", "note": "(single isomer, unassigned) [Compound 21]", "IC50": 31.6}, {"smiles": "Fc1ccc2[nH]cc(CCCNCC3COc4cccnc4O3)c2c1", "note": "(centres unmarked) [Compound 11]", "IC50": 1.26}]}, {"molecular_target": "T2, human 5HT transporter (Homo sapiens, UniProt P31645)", "T2 construct": "host or cells: HEK cells", "T2 sequence (P31645 whole entry)": "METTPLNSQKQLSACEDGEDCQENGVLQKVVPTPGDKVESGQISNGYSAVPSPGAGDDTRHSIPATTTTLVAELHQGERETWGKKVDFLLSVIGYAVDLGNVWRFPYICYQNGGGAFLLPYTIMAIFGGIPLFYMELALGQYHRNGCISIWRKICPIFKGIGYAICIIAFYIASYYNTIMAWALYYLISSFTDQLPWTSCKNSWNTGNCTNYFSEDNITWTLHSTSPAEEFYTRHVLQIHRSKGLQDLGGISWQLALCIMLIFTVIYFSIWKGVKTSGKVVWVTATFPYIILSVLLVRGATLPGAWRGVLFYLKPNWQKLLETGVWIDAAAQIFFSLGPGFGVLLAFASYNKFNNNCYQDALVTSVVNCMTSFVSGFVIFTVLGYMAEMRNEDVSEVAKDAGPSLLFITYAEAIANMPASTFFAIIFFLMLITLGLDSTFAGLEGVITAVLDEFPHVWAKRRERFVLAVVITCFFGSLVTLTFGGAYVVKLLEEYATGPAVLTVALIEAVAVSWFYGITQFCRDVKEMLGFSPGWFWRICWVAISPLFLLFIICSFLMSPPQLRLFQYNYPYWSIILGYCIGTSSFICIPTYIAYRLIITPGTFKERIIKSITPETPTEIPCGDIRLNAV", "experiment": "Binding experiment for 5-HT transporter, [3H]Paroxetine", "settings": "5HT transporter-transfected HEK cells, [3H]Paroxetine binding; read-out: pIC50 5HT reuptake inhibition (converted)", "experimental": "as §1\nFrozen human 5HT transporter-transfected HEK cells (Perkin Elmer, Brussels) were thawed and briefly homogenised using an Ultra-Turrax T25 homogeniser prior to dilution to an appropriate protein concentration optimised for specific and non-specific binding. [^3H]Paroxetine (NEN, specific activity 20 Ci/mmol) was diluted in Tris-HCl assay buffer containing NaCl and KCl (50 mM 120 mM and 5 mM, respectively; pH 7.4) at a concentration of 5 nmol/L. Prepared radioligand (25 μl) was then incubated (60 min, 25° C.) with membrane preparations (200 μl) and with 25 μl of either 10% DMSO control, Imipramine (10^−6 mol/L final concentration), or compound of interest Membrane-bound activity was detected by filtration through a Packard Filtermate harvester onto Unifilterplates pre-soaked in 0.1% PEI, washing with ice-cold assay buffer (3×4 ml). Filters were dried prior to addition of scintillation fluid and then counting in a Topcount scintillation counter. % Specific bound and competition binding curves were calculated using S-Plus software (Insightful).", "units": {"IC50": "nM"}, "values": [{"smiles": "O=[N+]([O-])c1ccc2[nH]cc(C3=CCN(CC4COc5ccncc5O4)CC3)c2c1", "note": "(racemic) [Compound 14]", "IC50": 100}, {"smiles": "Fc1ccc2[nH]cc(CCCNCC3Oc4cccnc4O3)c2c1", "note": "(centres unmarked) [Compound 9]", "IC50": 501}, {"smiles": "Fc1ccc2[nH]cc(C3=CCN(CC4COc5cccnc5O4)CC3)c2c1", "note": "(centres unmarked) [I, reference compound]", "IC50": 200}, {"smiles": "N#Cc1ccc2[nH]cc(C3CCN(CC4COc5ccncc5O4)CC3)c2c1", "note": "(single isomer, unassigned) [Compound 22]", "IC50": 501}, {"smiles": "CN1CC(CN2CC=C(c3c[nH]c4ccc(F)cc34)CC2)Oc2ncccc21", "note": "(centres unmarked) [Compound 1]", "IC50": 15.8}, {"smiles": "Fc1ccc2[nH]cc(CCCNCC3COc4ccncc4O3)c2c1", "note": "(centres unmarked) [Compound 6]", "IC50": 316}, {"smiles": "CN1CC(CN2CCC(c3c[nH]c4ccc(F)cc34)CC2)Oc2ncccc21", "note": "(centres unmarked) [Compound 2]", "IC50": 316}, {"smiles": "Fc1ccc2[nH]cc(C3CCN(CC4COc5ccncc5O4)CC3)c2c1", "note": "(centres unmarked) [Compound 5]", "IC50": 126}, {"smiles": "CN1CC(CNCCCc2c[nH]c3ccc(F)cc23)Oc2ncccc21", "note": "(centres unmarked) [Compound 3]", "IC50": 200}, {"smiles": "N#Cc1ccc2[nH]cc(C3CCN(CC4COc5ccncc5O4)CC3)c2c1", "note": "(single isomer, unassigned) [Compound 21]", "IC50": 20}, {"smiles": "Fc1ccc2[nH]cc(CCCNCC3COc4cccnc4O3)c2c1", "note": "(centres unmarked) [Compound 11]", "IC50": 316}]}, {"molecular_target": "T3, Human Dopamine D2L receptor (Homo sapiens, UniProt P14416)", "T3 construct": "expressed in transfected cells; host or cells: CHO cells", "T3 sequence (P14416 whole entry)": "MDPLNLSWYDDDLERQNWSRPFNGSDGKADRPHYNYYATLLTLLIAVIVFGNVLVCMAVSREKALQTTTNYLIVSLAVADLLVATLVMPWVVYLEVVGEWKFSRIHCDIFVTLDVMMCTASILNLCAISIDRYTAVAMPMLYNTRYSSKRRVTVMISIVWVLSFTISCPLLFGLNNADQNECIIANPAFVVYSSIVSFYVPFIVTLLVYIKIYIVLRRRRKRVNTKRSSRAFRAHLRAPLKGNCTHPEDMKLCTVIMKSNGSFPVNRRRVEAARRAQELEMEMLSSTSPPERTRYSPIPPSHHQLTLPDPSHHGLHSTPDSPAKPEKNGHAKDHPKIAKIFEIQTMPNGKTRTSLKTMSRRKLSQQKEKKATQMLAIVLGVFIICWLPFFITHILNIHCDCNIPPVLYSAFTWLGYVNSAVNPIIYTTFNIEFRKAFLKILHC", "experiment": "Radioligand binding experiment for dopamine D2 receptor (hD2), [3H]Spiperone", "settings": "membranes of D2L receptor-transfected CHO cells, read-out: pIC50 D2 (converted)", "experimental": "as §1\nHuman Dopamine D2L receptor-transfected CHO cells were collected by scraping into ice-cold Tris-HCl buffer ([…], pH 7.4). The suspension was centrifuged (23 500×g, 10 min, 4° C.) and pellets stored at −70° C. until require. They were then thawed and briefly homogenised using an Ultra-Turrax T25 homogeniser prior to dilution to an appropriate protein concentration optimised for specific and non-specific binding. [^3H]Spiperone (NEN, specific activity˜70 Ci/mmol) was diluted in Tris-HCl assay buffer containing NaCl, CaCl2, MgCl2, KCI (50, 120, 2, 1, and 5 mM respectively, adjusted to pH 7.7 with HCl) at a concentration of 2 nmol/L. Prepared radioligand (50 μl) was then incubated (30 min, 37° C.) with membrane preparations pre-diluted to an appropriate protein concentration (400 μl), and with 50 μl of either the 10% DMSO control, Butaclamol (10^−6 mol/L final concentration), or compound of interest. Membrane-bound activity was detected by filtration through a Packard Filtermate harvester onto Unifilterplates, washing with ice-old Tris-HCl buffer (50 mM; pH8.0; 3×4 ml). Filters were allowed to dry before adding scintillation fluid and counting in a Topcount scintillation counter. % Specific bound and competition binding curves were calculated using S-Plus software (Insightful).", "units": {"IC50": "nM"}, "values": [{"smiles": "O=[N+]([O-])c1ccc2[nH]cc(C3=CCN(CC4COc5ccncc5O4)CC3)c2c1", "note": "(racemic) [Compound 14]", "IC50": 100}, {"smiles": "Fc1ccc2[nH]cc(CCCNCC3Oc4cccnc4O3)c2c1", "note": "(centres unmarked) [Compound 9]", "IC50": "> 1000"}, {"smiles": "Fc1ccc2[nH]cc(C3=CCN(CC4COc5cccnc5O4)CC3)c2c1", "note": "(centres unmarked) [I, reference compound]", "IC50": 251}, {"smiles": "N#Cc1ccc2[nH]cc(C3CCN(CC4COc5ccncc5O4)CC3)c2c1", "note": "(single isomer, unassigned) [Compound 22]", "IC50": 794}, {"smiles": "CN1CC(CN2CC=C(c3c[nH]c4ccc(F)cc34)CC2)Oc2ncccc21", "note": "(centres unmarked) [Compound 1]", "IC50": 200}, {"smiles": "Fc1ccc2[nH]cc(CCCNCC3COc4ccncc4O3)c2c1", "note": "(centres unmarked) [Compound 6]", "IC50": 200}, {"smiles": "CN1CC(CN2CCC(c3c[nH]c4ccc(F)cc34)CC2)Oc2ncccc21", "note": "(centres unmarked) [Compound 2]", "IC50": 398}, {"smiles": "Fc1ccc2[nH]cc(C3CCN(CC4COc5ccncc5O4)CC3)c2c1", "note": "(centres unmarked) [Compound 5]", "IC50": 79.4}, {"smiles": "CN1CC(CNCCCc2c[nH]c3ccc(F)cc23)Oc2ncccc21", "note": "(centres unmarked) [Compound 3]", "IC50": "> 1000"}, {"smiles": "N#Cc1ccc2[nH]cc(C3CCN(CC4COc5ccncc5O4)CC3)c2c1", "note": "(single isomer, unassigned) [Compound 21]", "IC50": 79.4}, {"smiles": "Fc1ccc2[nH]cc(CCCNCC3COc4cccnc4O3)c2c1", "note": "(centres unmarked) [Compound 11]", "IC50": 158}]}, {"molecular_target": "T4, Human Dopamine D3 receptor (Homo sapiens, UniProt P35462)", "T4 construct": "expressed in transfected cells; host or cells: CHO cells", "T4 sequence (P35462 whole entry)": "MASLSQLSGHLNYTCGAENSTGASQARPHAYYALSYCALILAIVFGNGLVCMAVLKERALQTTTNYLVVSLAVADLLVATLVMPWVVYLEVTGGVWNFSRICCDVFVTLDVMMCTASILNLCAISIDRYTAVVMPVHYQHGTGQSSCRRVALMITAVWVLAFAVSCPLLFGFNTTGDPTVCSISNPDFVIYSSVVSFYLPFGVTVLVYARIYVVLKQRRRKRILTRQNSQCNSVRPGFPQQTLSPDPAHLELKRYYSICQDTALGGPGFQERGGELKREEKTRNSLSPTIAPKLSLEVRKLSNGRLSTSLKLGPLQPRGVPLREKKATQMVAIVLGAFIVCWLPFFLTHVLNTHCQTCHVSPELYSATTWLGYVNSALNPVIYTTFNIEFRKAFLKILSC", "experiment": "Radioligand binding experiment for dopamine D3 receptor (hD3), [125I]Iodosulpride", "settings": "membranes of D3 receptor-transfected CHO cells, read-out: pIC50 D3 (converted)", "experimental": "as §1\nHuman Dopamine D3 receptor-transfected CHO cells were collected by scraping into ice-cold Tris-HCl buffer (50 mM, pH 7.4). The suspension was centrifuged (23 500×g, 10 min, 4° C.) and pellets stored at −70° C. until required. They were then thawed and briefly homogenised using an Ultra-Turrax T25 homogeniser prior to dilution to an appropriate protein concentration optimised for specific and non-specific binding. [^125]Iodosulpride (Amersham, specific activity 2000 Ci/mmol) was diluted in Tris-HCl assay buffer containing NaCl, CaCl2, MgCl2, KCl and BSA (50, 120, 2, 1, 5 mM, 0.1% respectively, adjusted to pH 7.7 with HCl) at a concentration of 2 nmol/L. Prepared radioligand (20 μl) was incubated (60 min, RT) and with 20 μl of either the 10% DMSO control, Risperidone (10^−6 mol/L final concentration), or compound of interest, then with membrane preparations (80 μl). Overnight incubation followed after addition of WGA-coated PVT SPA beads (250 μl; Amersham) and membrane-bound counts measured in a Wallac Microbeta. % Specific bound and competition binding curves were calculated using S-Plus software (Insightful).", "units": {"IC50": "nM"}, "values": [{"smiles": "Fc1ccc2[nH]cc(CCCNCC3Oc4cccnc4O3)c2c1", "note": "(centres unmarked) [Compound 9]", "IC50": 251}, {"smiles": "Fc1ccc2[nH]cc(C3=CCN(CC4COc5cccnc5O4)CC3)c2c1", "note": "(centres unmarked) [I, reference compound]", "IC50": 501}, {"smiles": "CN1CC(CN2CC=C(c3c[nH]c4ccc(F)cc34)CC2)Oc2ncccc21", "note": "(centres unmarked) [Compound 1]", "IC50": 79.4}, {"smiles": "Fc1ccc2[nH]cc(CCCNCC3COc4ccncc4O3)c2c1", "note": "(centres unmarked) [Compound 6]", "IC50": 31.6}, {"smiles": "CN1CC(CN2CCC(c3c[nH]c4ccc(F)cc34)CC2)Oc2ncccc21", "note": "(centres unmarked) [Compound 2]", "IC50": 100}, {"smiles": "Fc1ccc2[nH]cc(C3CCN(CC4COc5ccncc5O4)CC3)c2c1", "note": "(centres unmarked) [Compound 5]", "IC50": 6.31}, {"smiles": "CN1CC(CNCCCc2c[nH]c3ccc(F)cc23)Oc2ncccc21", "note": "(centres unmarked) [Compound 3]", "IC50": 398}, {"smiles": "Fc1ccc2[nH]cc(CCCNCC3COc4cccnc4O3)c2c1", "note": "(centres unmarked) [Compound 11]", "IC50": 398}]}]}
